Data: patent US20180303086A1, “An Antimicrobial Composition” (Conopco, Inc., d/b/a UNILEVER, priority 2015, published 2018)

Assay: Solubility product and silver ion solubility of silver compounds in water at 25° C.
Format: physicochemical
Conditions: calculated from Ksp, [Ag+]=(Ksp·x)^(1/(x+1))
Description: More particularly, silver ion solubility [Ag+], a value given in mol/L may be calculated using the formula: […]

[Cl][Ag] [Silver chloride]
Silver Ion Solubility [Ag+]: 13 µM
